The source of these data is article PMC3674150 (Cancer research, 2013).

For series [1], the system named is K562 cells.
Series [2] deals with K562 cells. The series is described as follows: Apoptosis assay. The class given is cell-based, human.
The conditions of series [3]: clinical, cited from earlier work.
Series [4] concerns BCR-ABL signaling (pCrkL) in K562 cells.
Series [5] relates to BCR-ABL signaling (pCrkL, pSTAT5) in K562 cells. Conditions: 500 and 5000 nM for 2 h, FACS.
The next series concerns primary CML cells. The series can be described thus: Apoptosis assay in primary CML mononuclear cells after washout. The note with it: primary CML cells (12/209), 4 h at 100 nM.
For series [6], the system named is K562 cells. The series is described as follows: Detection of inhibitors by LC/MS/MS in cellular and media fractions.
Series [7] concerns BCR-ABL signaling (pSTAT5) in primary CML cells. The series can be described thus: Phosflow FACS analysis of pSTAT5 in primary CML cells. The series is classed as cell-based, human. The note with it: 100 nM for 4 h. A general note: A flow cytometer gives signals particle by particle.
[8] abbreviates: 2 h exposure at 10 nM, annexin V at 72 h.
The mark [9] stands for this setting: 2 h exposure at 10 nM, standard washout, annexin V at 72 h.
The mark [10] stands for this setting: 2 h exposure at 100 nM, annexin V at 72 h.
Where [11] appears, read: 2 h exposure at 100 nM, standard washout, annexin V at 72 h.
The mark [12] stands for this setting: 100 nM for 2 h, after standard washout.

Read-outs that look alike come from different tables or passages of the source.

Take `CNC(=O)c1cc(Oc2ccc(NC(=O)Nc3cc(C(C)(C)C)nn3-c3ccc4ncccc4c3)c(F)c2)ccn1` [DCC-2036, rebastinib]: the “TKI in the media fraction” value in the series on K562 cells [1] is “either not detected or below the lower limit of quantitation”. The “concentration inducing substantial apoptosis over untreated” value in the series on K562 cells [2] (continuous exposure for 72 h) was 25 to 50 nM.

As to `Cc1nc(Nc2ncc(C(=O)Nc3c(C)cccc3Cl)s2)cc(N2CCN(CCO)CC2)n1` [dasatinib], the plasma half-life was 3 to 5 h in series [3] (ref 9, 21) and 3 to 5 h in series [3] (ref 10, 11). Further, the serum half-life in series [3] (ref 13) is 3 to 5 h. The “TKI in the media fraction” value in the series on K562 cells [1] is given as “either not detected or below the lower limit of quantitation”. Further, the results for the “apoptosis after expanded washout” value in the series on K562 cells [2] (setting [8]) and in the series with K562 cells [2] (setting [10]) were “background levels of apoptosis” and “moderate reduction in the extent of apoptosis”, respectively. Moreover, the results for the “apoptosis after standard washout compared to continuous exposure” value in the series with K562 cells [2] (setting [9]) and in the series with K562 cells [2] (setting [11]) were “abolished onset of apoptosis” and “only slightly diminished the extent of apoptosis”, respectively. For the same compound, the “apoptosis (annexin V-positive cells)” value with K562 cells [2] (continuous exposure at 10 nM or 100 nM) is given as “substantial onset of apoptosis”.

Regarding `Cc1cn(-c2cc(NC(=O)c3ccc(C)c(Nc4nccc(-c5cccnc5)n4)c3)cc(C(F)(F)F)c2)cn1` [nilotinib], the “pCrkL signal inhibition at end of exposure” value in series [4] (2 h exposure at 500 nM) is reported as “near complete pCrkL signal blockade”; in series [4] (2 h exposure at 5000 nM), “complete interruption”. Further, the “media level of TKI” value with K562 cells [1] (human, 2 h, 5000 nM) is on record as 25.5 nM. Also, the “pCrkL after expanded washout” value in series [5] is given as “pCrkL levels approximating pretreatment levels”. Further, in the series with K562 cells [2] (2 h exposure at 5000 nM, annexin V at 72 h), the “apoptosis after expanded washout” value was “reduced to background levels”. Moreover, in the series with K562 cells [2] (2 h exposure at 5000 nM, standard washout, annexin V at 72 h), the “apoptosis after standard washout” value was “substantial apoptosis”.

On to `Cc1ccc(C(=O)Nc2ccc(CN3CCN(C)CC3)c(C(F)(F)F)c2)cc1C#Cc1cnc2cccnn12` [ponatinib], for which the “pCrkL level after treatment compared to untreated/pretreatment” value in series [4] (2 h treatment at 10 nM, immunoblot) was 25-50%. In addition, the “pCrkL level after treatment” value in series [4] (2 h treatment at 100 nM, immunoblot) is given as “essentially undetectable levels”. For the same compound, the “apoptosis after expanded washout” value with primary CML cells is listed as “not completely back to baseline”; with K562 cells [2] (setting [8]), “reduced to background levels”; with K562 cells [2] (setting [10]), “unaffected”. For the same compound, the intracellular inhibitor level in the series on K562 cells [6] (10 nM for 2 h, after expanded washout) came out at 0.14 ng/10^6 cells; in the series with K562 cells [6] (10 nM for 2 h, after standard washout), 0.24 ng/10^6 cells; in the series with K562 cells [6] (100 nM for 2 h, after expanded washout), 0.87 ng/10^6 cells; in the series with K562 cells [6] (setting [12]), 2.11 ng/10^6 cells. Further, the “media level of TKI” value in the series on K562 cells [6] (setting [12]) was found to be 6.68 nM. Moreover, in series [7], the “pSTAT5 at 24 h post expanded washout” value is given as “approaching but not quite reaching those of untreated cells”. For the same compound, the “pSTAT5 at 24 h post standard washout” value in series [7] is reported as “remained inhibited”. Moreover, the “apoptosis after standard washout compared to continuous exposure” value in the series on K562 cells [2] (setting [9]) is reported as “minimal”; in the series with K562 cells [2] (setting [11]), “no reduction in apoptosis”.
